Measurements reported in PMC5979539 (International Journal of Molecular Sciences, 2018).

How the values were obtained:
PDC-109 = molecular target: T1, PDC-109 (Bos taurus, UniProt P02784); assay: SPR binding profile and kinetics of PDC-109 on immobilized neo-glycoprobes; set-up: species or system bovine; conditions: for derived association (KA) constant / kd / ka: immobilized glycoprobe, PDC-109 6.25 to 100 μM, HBS-P pH 7.4, 25 °C, 1:1 Langmuir model; for kd / ka: 3 to 6 repeat experiments; for ka: 30 μL/min, CV exceeding 50% in particular cases; for binding to PDC-109 in words: immobilized probe, PDC-109 flown over
T1 construct: PDC-109, purified from bull seminal plasma, was kindly donated by J.J. Calvete; tissue gift of J.J. Calvete; host or cells: bull seminal plasma
T1 sequence (P02784 26-134): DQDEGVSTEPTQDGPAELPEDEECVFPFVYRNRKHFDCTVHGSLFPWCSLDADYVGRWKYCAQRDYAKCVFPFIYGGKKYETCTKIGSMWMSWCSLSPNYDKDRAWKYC
Text: While the lipid selectivity and kinetics of PDC-109 has been characterized in considerable detail, its interaction with carbohydrate epitopes remains largely uncharted, despite its potential role in sperm reservoir formation in the female genital tract. We have therefore performed SPR experiments with PDC-109 and the most relevant mammalian glycotopes, particularly those containing Fuc epitopes. Once SPR sensor chips were functionalized with the different synthetic glycoprobes and evaluated with specific lectins (Section 2.1.2) they were used to characterize both qualitatively and quantitatively the interaction of PDC-109. For kinetic analysis, several concentrations in the 6.25 to 100 μM range were analyzed and a 1:1 Langmuir binding model was chosen for sensorgram fitting.
Data dispersion was attributable to the unusual sensorgrams observed, reflecting a complex binding event, particularly in the association phase of PDC-109. […] In a conventional, straightforward binding event, the response—i.e., the signal rise over time, reflecting protein binding to the sensor surface—reaches a constant value once equilibrium is established, and remains so until the protein solution passed over the sensor chip is replaced with buffer, giving way to the spontaneous dissociation process and subsequent surface regeneration.
Binding experiments were performed at 25 °C and 30 μL/min flow rate. […] Sensor surface was regenerated with a 60 μL-injection of specific carbohydrate (10 mM lac, 500 mM αMe-Man, 0.5 M αMe-Fuc, and 10 mM Sia) followed by a 60 μL-injection of NaCl 1 M.

MAA = assay: SPR binding and kinetics of MAA on immobilized sialic acid glycoprobes; set-up: species or system Maackia amurensis
Con A = Con A (Canavalia ensiformis, UniProt P02866); conditions: for ka1: SPR BIAcore 3000, glycoprobe immobilized on CM5 chip, HBS-P pH 7.4 + CaCl2 5 mM, MnCl2 1 mM; for ka1 / kd1 / ka2 / kd2: Con A 2.5-80 nM, bivalent model; for ka1 / kd1: first binding event; for KA1 / kd1 / ka2 / kd2: SPR; for KA1: affinity constant of first event, KA1 = ka1/kd1; for kd1 / ka2 / kd2: immobilized glycoprobe; for ka2 / kd2: second binding event
Method: Subsequently, glycoprobes displaying mannobioses only differing in their glycosidic linkage (Man-α1,2-Man, Man-α1,3-Man and Man-α1,6-Man) were immobilized on a sensor chip and their interaction with concanavalin A (Con A) was studied. Con A is a relatively complex lectin, organized as a β-barrel-like tetramer at pH > 7, each dimer subunit (D2 symmetry) with two CRDs situated on opposing faces of the protein. Sensorgrams of different Con A concentrations were recorded and kinetic constants determined by simultaneously fitting the experimental curves to a bivalent kinetic model (Figure 1). This model allows the first and second binding events to be separately described by two sets of rate constants (Table 2).
All SPR experiments were performed in a BIAcore 3000 instrument (GE Healthcare, Uppsala, Sweden) using carboxymethyl-functionalized CM5 or C1 sensor chips and HBS-P (0.01 M HEPES pH 7.4; 0.15 M NaCl; 0.005% v/v surfactant P20) as running buffer, supplemented when necessary with CaCl2 (5 mM) and MnCl2 (1 mM) or other competitive reagents/adjuvants such as bovine serum albumin (BSA), carboxymethyldextran (CMD) or polivinylpirrolidone (PVP). SPR sensorgram analysis and curve fitting were done with the BIAevaluation 4.1.1 sofware package (GE Healthcare, Uppsala, Sweden). In all experiments, specific binding responses were obtained by subtracting from each channel the reference channel response. Moreover, in most cases a double referencing was applied (i.e., reference Fc1 channel plus an internal reference standard, namely buffer injection subtraction).
For all immobilizations, the carboxyl functionalities of the CM5 (or C1) sensor chip surfaces were activated by injecting a mixture of 0.05 M NHS and 0.2 M EDC (1:1 v/v; 50 µL) at 5 µL/min. Then, glycopeptide solutions were passed at 1–2 mg/mL in 10 mM NaOAc for approximately 12 min over the activated surface. For immobilization, pH 4 or pH 6 conditions were used, as required. In the specific case of PDC-109, protein solution was passed at 0.05 µg/µL in 10 mM NaOAc pH 4 over the activated surface. Afterwards, unreacted groups on all chip surfaces were blocked with ethanolamine-HCl (1 M; pH 8.5; 60 µL) or H2O (60 µL). The difference, in resonance units (RU), between readings after surface activation and final response was converted into amount of immobilized glycopeptide (0.981 RU~1 pg/mm^2 for glycopeptides, 1 RU = 1 pg/mm^2 for proteins; see legend Table 6).
All kinetic measurements were carried out by running a manually programmed sequence of binding experiments using several protein range concentrations and two flow rates. Regeneration of the sensor surface was accomplished in a specific-manner by injecting the complementary carbohydrate (10 mM lac, 100–500 mM αMe-Man, 0.5 M αMe-Fuc or L-Fuc, 0.5 M GlcNAc, 0.5 M Glc, and 10 mM Sia). Alternatively, other procedures such as glycoprotein solutions (e.g., fetuin at 2–5 g/L), low pH-buffers (e.g., 10 mM glycine pH 1.5–2.5), high salt (e.g., 1 M NaCl), high pH or specific chemicals were also used to break the interaction.
For the evaluation of the sensor chips, binding experiments and kinetic studies were carried out with the various glycoprobes and specific well-characterized lectins (ECA, Con A, LTA, UEA-I, MAA, and SNA). Several concentrations of each lectin were prepared by serial 2/3-fold dilutions of the most concentrated sample in running buffer supplemented with CaCl2 (5 mM) and MnCl2 (1 mM). Thus, concentrations varied from 66 nM to 2.5 µM for ECA; from 2.5 to 80 nM for Con A; from 31.25 nM to 1 µM for LTA and UEA-I; from 250 nM to 1.9 µM for MAA and from 74 to 563 nM for SNA. Analyses were performed at 20 µL/min and kinetic studies at 10 and 40 μL/min. After lectin injection, the sample solution was replaced by running buffer and the dissociation phase was monitored for 3–6 min.

SNA = SNA (Sambucus nigra, UniProt Q41358)
[1] = molecular target: the molecule itself; assay: SPR; PDC-109 immobilised on a CM5 chip (1645 RU, 10 mM NaOAc pH 4); 50 µM PDC-109 passed over at 20 µL/min; regeneration with 1 M NaCl; two replicates

Sequence of SNA (Q41358 309-570 limits assumed): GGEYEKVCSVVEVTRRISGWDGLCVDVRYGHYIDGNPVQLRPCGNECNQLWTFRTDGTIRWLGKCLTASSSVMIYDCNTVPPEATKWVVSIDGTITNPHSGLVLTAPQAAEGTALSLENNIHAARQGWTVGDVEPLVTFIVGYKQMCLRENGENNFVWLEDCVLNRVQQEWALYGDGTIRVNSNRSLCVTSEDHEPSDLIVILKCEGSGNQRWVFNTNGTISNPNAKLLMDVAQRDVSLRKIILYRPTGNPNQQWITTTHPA
Sequence of SNA (Q41358 29-290 partner limits assumed): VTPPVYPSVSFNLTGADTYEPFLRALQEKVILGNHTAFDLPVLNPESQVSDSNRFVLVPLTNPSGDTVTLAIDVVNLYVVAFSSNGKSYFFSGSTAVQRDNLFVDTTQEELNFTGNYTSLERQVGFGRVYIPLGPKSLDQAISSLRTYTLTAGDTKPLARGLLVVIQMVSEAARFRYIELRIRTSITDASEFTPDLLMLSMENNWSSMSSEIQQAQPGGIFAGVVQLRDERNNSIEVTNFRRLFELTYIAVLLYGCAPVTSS

With “Gal-β1,4-GlcNAc-Aoa(m)-GFKKG [neo-glycoprobe: Gal-β1,4-GlcNAc oxime-ligated to the peptide module N[Me]-O-Aoa-GFKKG]” the “derived association (KA) constant” value (PDC-109) was 10000 M⁻¹, the kd (PDC-109) was 0.0086 s⁻¹ and the ka (PDC-109) was 86.2 M⁻¹ s⁻¹.

In the case of “Neu5Ac-α2,3-Gal-β1,4-GlcNAc-N[Me]-O-Aoa-GFKKG-amide [Neu5Ac-α2,3-Gal-β1,4-GlcNAc-Aoa(m)-GFKKG, neo-glycoprobe: Neu5Ac-α2,3-Gal-β1,4-GlcNAc oxime-ligated to the peptide module N[Me]-O-Aoa-GFKKG]”, the “carbohydrate specificity of MAA in words” value (MAA; SPR binding responses on sialic acid glycoprobe chip) is reported as “recognized only”, the ka (MAA; SPR, immobilized glycoprobe, MAA 250 nM to 1.9 μM, HBS-P pH 7.4 + CaCl2 5 mM, MnCl2 1 mM, 1:1 Langmuir model) is reported as 5.55 × 10^3 M^−^1 s^−^1 and the KA (MAA; SPR, immobilized glycoprobe, MAA 250 nM to 1.9 μM, 1:1 Langmuir model) is reported as 9.12 × 10^5 M^−^1. For the same molecule, the “derived association (KA) constant” value (PDC-109) was 12400 M⁻¹, the kd (PDC-109) was 0.00477 s⁻¹ and the ka (PDC-109) was 99.9 M⁻¹ s⁻¹.

“Man-α1,6-Man-Aoa(m)-GFKKG [neo-glycoprobe: Man-α1,6-Man oxime-ligated to the peptide module N[Me]-O-Aoa-GFKKG]” showed a ka1 (Con A) of 8910 M⁻¹ s⁻¹, a KA1 (Con A) of 308000 M⁻¹ and a kd1 (Con A) of 0.0289 s⁻¹. The ka2 (Con A) was 7.15 × 10^−4 RU^−1 s^−1, the kd2 (Con A) was 0.019 s⁻¹ and the “derived association (KA) constant” value (PDC-109) was 23800 M⁻¹. For the same molecule, the kd (PDC-109) was 0.0173 s⁻¹ and the ka (PDC-109) was 410 M⁻¹ s⁻¹.

“Gal-β1,6-GlcNAc-Aoa(m)-GFKKG [neo-glycoprobe: Gal-β1,6-GlcNAc oxime-ligated to the peptide module N[Me]-O-Aoa-GFKKG]” was tested, and the “derived association (KA) constant” value (PDC-109) was 22700 M⁻¹, the kd (PDC-109) was 0.0208 s⁻¹ and the ka (PDC-109) was 472 M⁻¹ s⁻¹.

In the case of “Gal-β1,3-GlcNAc-Aoa(m)-GFKKG [neo-glycoprobe: Gal-β1,3-GlcNAc oxime-ligated to the peptide module N[Me]-O-Aoa-GFKKG]”, the “derived association (KA) constant” value (PDC-109) is reported as 17000 M⁻¹, the kd (PDC-109) is reported as 0.00756 s⁻¹ and the ka (PDC-109) is reported as 128 M⁻¹ s⁻¹.

In the case of “Fuc-α1,3-GlcNAc-Aoa(m)-GFKKG [neo-glycoprobe: Fuc-α1,3-GlcNAc oxime-ligated to the peptide module N[Me]-O-Aoa-GFKKG]”, the “derived association (KA) constant” value (PDC-109) is reported as 237000 M⁻¹, the kd (PDC-109) is reported as 0.00165 s⁻¹ and the ka (PDC-109) is reported as 763 M⁻¹ s⁻¹.

In the case of “Fuc-α1,4-GlcNAc-Aoa(m)-GFKKG [neo-glycoprobe: Fuc-α1,4-GlcNAc oxime-ligated to the peptide module N[Me]-O-Aoa-GFKKG]”, the kd (PDC-109) is reported as 8.83e-05 s⁻¹, the ka (PDC-109) is reported as 2910 M⁻¹ s⁻¹ and the “binding to PDC-109 in words” value (PDC-109) is reported as “highest binding affinity”.

“Neu5Ac-α2,3/6-Gal-β1,4-Glc-N[Me]-O-Aoa-GFKKG-amide [Neu5Ac-α2,3/6-Gal-β1,4-Glc-Aoa(m)-GFKKG, neo-glycoprobe: Neu5Ac-α2,3/6-Gal-β1,4-Glc oxime-ligated to the peptide module N[Me]-O-Aoa-GFKKG]” was tested, and the “derived association (KA) constant” value (PDC-109) was 27700 M⁻¹, the kd (PDC-109) was 0.0081 s⁻¹ and the ka (PDC-109) was 2120 M⁻¹ s⁻¹.

“Fuc-α1,6-GlcNAc-Aoa(m)-GFKKG [neo-glycoprobe: Fuc-α1,6-GlcNAc oxime-ligated to the peptide module N[Me]-O-Aoa-GFKKG]” was tested, and the “derived association (KA) constant” value (PDC-109) was 73100 M⁻¹, the kd (PDC-109) was 0.00345 s⁻¹ and the ka (PDC-109) was 645 M⁻¹ s⁻¹.

“Man-α1,3-Man-Aoa(m)-GFKKG [neo-glycoprobe: Man-α1,3-Man oxime-ligated to the peptide module N[Me]-O-Aoa-GFKKG]” was tested, and the ka1 (Con A) was 22800 M⁻¹ s⁻¹, the KA1 (Con A) was 345000 M⁻¹ and the kd1 (Con A) was 0.0661 s⁻¹. The ka2 (Con A) was 3.78 × 10^−3 RU^−1 s^−1, the kd2 (Con A) was 0.0629 s⁻¹ and the “derived association (KA) constant” value (PDC-109) was 87700 M⁻¹. It also gave a kd (PDC-109) of 0.0044 s⁻¹ and a ka (PDC-109) of 386 M⁻¹ s⁻¹.

With “N[Me]-O-Aoa-GFKKG-amide [peptide module for oxime ligation]” the “binding to PDC-109 in words” value (PDC-109) was “undesirable, non-specific binding”.

“Man-α1,2-Man-Aoa(m)-GFKKG [neo-glycoprobe: Man-α1,2-Man oxime-ligated to the peptide module N[Me]-O-Aoa-GFKKG]” gave a ka1 (Con A) of 16800 M⁻¹ s⁻¹, a KA1 (Con A) of 126000 M⁻¹ and a kd1 (Con A) of 0.133 s⁻¹. For the same molecule, the ka2 (Con A) was 2.88 × 10^−2 RU^−1 s^−1, the kd2 (Con A) was 0.0706 s⁻¹ and the “derived association (KA) constant” value (PDC-109) was 78700 M⁻¹. It also gave a kd (PDC-109) of 0.013 s⁻¹ and a ka (PDC-109) of 1020 M⁻¹ s⁻¹.

With “Neu5Ac-α2,6-Gal-β1,4-GlcNAc-N[Me]-O-Aoa-GFKKG-amide [Neu5Ac-α2,6-Gal-β1,4-GlcNAc-Aoa(m)-GFKKG, neo-glycoprobe: Neu5Ac-α2,6-Gal-β1,4-GlcNAc oxime-ligated to the peptide module N[Me]-O-Aoa-GFKKG]” the KA (SNA) was 6.27 × 10^6 M^−^1, the “carbohydrate specificity of SNA in words” value (SNA) was “marked preference” and the ka (SNA; pH 7.4) was 1.02 × 10^4 M^−^1 s^−^1. For the same molecule, the “derived association (KA) constant” value (PDC-109) was 166000 M⁻¹, the kd (PDC-109) was 0.00253 s⁻¹ and the ka (PDC-109) was 1880 M⁻¹ s⁻¹. For the same molecule, the “binding to PDC-109 in words” value (PDC-109) was “favored interaction”.

B1: PDC-109 (BSP-A1/-A2), main protein of bovine seminal plasma (natural protein, UniProt P02784 26-134, looked up)
chain: DQDEGVSTEPTQDGPAELPEDEECVFPFVYRNRKHFDCTVHGSLFPWCSLDADYVGRWKYCAQRDYAKCVFPFIYGGKKYETCTKIGSMWMSWCSLSPNYDKDRAWKYC
modifications: mixture of the glycosylated (O-linked trisaccharide, Neu5Ac-Hex-HexNAc) and non-glycosylated forms
notes: Native preparation; two closely spaced bands on SDS-PAGE (glycosylated and non-glycosylated forms); The same preparation was both immobilised and flowed over the chip; also called BSP-A2; source: purified from bull seminal plasma (donated by J.J. Calvete)
B1: binds [1].
